Reference: patent US11542280B2, “Substituted pyrimidinium compounds and derivatives for combating animal pests” (BASF SE, priority 2017, dated 2023)

How the values were obtained:
Format in all cases: in vivo
Nilaparvata lugens = experiment: Rice brown plant hopper spray test on rice seedlings; settings: adults on sprayed rice seedlings, after 72 hours, read-out: mortality in comparison with untreated controls
Procedure: (§1) General conditions: If not otherwise specified, the test solutions are prepared as follows:
(§2) The active compound is dissolved at the desired concentration in a mixture of 1:1 (vol:vol) distilled water: acetone. The test solution is prepared at the day of use.
(§3) Test solutions are prepared in general at different concentrations (wt/vol).
Rice seedlings are cleaned and washed 24 hours before spraying. The active compounds are formulated in 50:50 acetone:water (vol:vol) and 0.1% vol/vol surfactant (EL 620) is added. Potted rice seedlings are sprayed with 5 ml test solution, air dried, placed in cages and inoculated with 10 adults. Treated rice plants are kept at about 28-29° C. and relative humidity of about 50-60%. Percent mortality is recorded after 72 hours.

Dichromothrips corbetti = experiment: Orchid thrips floral-immersion test; settings: adult thrips, 72 hours after treatment, read-out: mortality in comparison with untreated controls
Procedure: as §1, §2, §3
Dichromothrips corbetti adults used for bioassay are obtained from a colony maintained continuously under laboratory conditions. For testing purposes, the test compound is diluted in a 1:1 mixture of acetone:water (vol:vol), plus 0.01% vol/vol Alkamuls® EL 620 surfactant.
Thrips potency of each compound is evaluated by using a floral-immersion technique. Plastic petri dishes are used as test arenas. All petals of individual, intact orchid flowers are dipped into treatment solution and allowed to dry. Treated flowers are placed into individual petri dishes along with about 20 adult thrips. The petri dishes v then covered with lids. All test arenas are held under continuous light and a temperature of about 28° C. for duration of the assay. After 3 days, the numbers of live thrips are counted on each flower, and along inner walls of each petri dish. The percent mortality is recorded 72 hours after treatment.

Nephotettix virescens = experiment: Rice green leafhopper spray test on rice seedlings; settings: adults on sprayed rice seedlings, after 72 hours, read-out: mortality in comparison with untreated controls
Procedure: as §1, §2, §3
Rice seedlings are cleaned and washed 24 hours before spraying. The active compounds are formulated in 50:50 acetone:water (vol:vol), and 0.1% vol/vol surfactant (EL 620) is added. Potted rice seedlings are sprayed with 5 ml test solution, air dried, placed in cages and inoculated with 10 adults. Treated rice plants are kept at about 28-29° C. and relative humidity of about 50-60%. Percent mortality is recorded after 72 hours.

Measured: mortality at 500 ppm

Cn1c2[n+](c([O-])c(-c3ccccc3)c1=O)C(CC#N)CS2 (stereo not drawn) [Example C1, 3-(cyanomethyl)-8-methyl-7-oxo-6-phenyl-2,3-dihydrothiazolo[3,2-a]pyrimidin-4-ium-5-olate]
> 75%: all assays above
